Patent US20070042037A1, “Pharmaceutical composition containing levodopa and carbidopa” (priority 2003, published 2007)

What was measured:
[1] = Dissolution test, continuous-flow dissolution chamber, in vitro release; assay type: physicochemical; conditions: pH 1.1 artificial gastric juice, 25 ml/min, 37° C., mean of 6 measurements
Method: Six samples of a 250 mg preparation (50+200) were tested using a solution at pH 1.1 (artificial gastric juice) in a continuous-flow dissolution chamber (25 ml/min, 37° C.). The following percentages of release during the 24 hours were obtained (each value is the mean of 6 measurements): […]

[2] = in vivo; cited from earlier work
[3] = 3rd hour, 250 mg preparation (50 mg carbidopa+200 mg levodopa, ethylcellulose-coated granules)
[4] = 6th hour, 250 mg preparation (50+200)
[5] = 9th hour, 250 mg preparation (50+200)
[6] = 12th hour, 250 mg preparation (50+200)
[7] = 24th hour, 250 mg preparation (50+200)

Row | In vitro release, % released average [1, 3] [%] | In vitro release, % released average [1, 4] [%] | In vitro release, % released average [1, 5] [%] | In vitro release, % released average [1, 6] [%] | In vitro release, % released average [1, 7] [%] | Compound | Time to attain the maximum plasmatic concentration [2] [h]
1 | 26 | 39 | 51 | 63 | 89 | C[C@@](Cc1ccc(O)c(O)c1)(NN)C(=O)O [Carbidopa, carbidopa] | 
2 | 22 | 43 | 59 | 68 | 90 | N[C@@H](Cc1ccc(O)c(O)c1)C(=O)O [Levodopa, levodopa] | 1 to 2
